{"source": "ChEMBL document CHEMBL5241114", "about": "“A comprehensive review of BET-targeting PROTACs for cancer therapy” (Bioorg Med Chem, 2022)", "key": {"[1]": {"biological_target": "T1, Bromodomain-containing protein 4 (Homo sapiens, UniProt O60885)", "assay": "Induction of BRD4 degradation in human HEK293T cells", "type": "cell-based"}, "[2]": {"biological_target": "T1, Bromodomain-containing protein 4", "assay": "Induction of BRD4 degradation in human 231MFP cells", "type": "cell-based"}, "[3]": {"biological_target": "T1, Bromodomain-containing protein 4", "assay": "Induction of BRD4 degradation in human HEK293T cells at 10 uM measured at 6 hrs relative to control", "type": "cell-based"}, "[4]": {"tested_on": "BXPC-3", "assay": "Antiproliferative activity against human BXPC-3 cells assessed as inhibition of cell growth incubated for 72 hrs by MTT assay", "type": "functional, cell-based", "conditions": "BXPC-3, 72 h"}, "[5]": {"assay": "Half life of the compound in DMSO", "type": "physicochemical"}, "[6]": {"biological_target": "T1, Bromodomain-containing protein 4", "assay": "Binding affinity to BRD4 bromodomain 1 in human Ramos cells", "type": "cell-based"}, "[7]": {"assay": "Antiproliferative activity against human Burkitts lymphoma cells", "type": "functional", "conditions": "Burkitts lymphoma cell"}, "[8]": {"tested_on": "NAMALVA", "assay": "Antiproliferative activity against human NAMALVA cells", "type": "functional"}, "[9]": {"biological_target": "T1, Bromodomain-containing protein 4", "assay": "Induction of degradation of BRD4 (unknown origin)"}, "[10]": {"tested_on": "MM1.S", "assay": "Antiproliferative activity against human MM1.S cells assessed as inhibition of cell growth", "type": "functional, cell-based"}, "[11]": {"tested_on": "MV4-11", "assay": "Antiproliferative activity against human MV4-11 cells assessed as inhibition of cell growth", "type": "functional, cell-based"}, "[12]": {"tested_on": "MDA-MB-468", "assay": "Antiproliferative activity against human MDA-MB-468 cells assessed as inhibition of cell growth", "type": "functional, cell-based"}, "[13]": {"biological_target": "T1, Bromodomain-containing protein 4", "assay": "Induction of BRD4 degradation in human 231MFP cells at 10 uM incubated for 60 mins by Western blot analysis relative to control", "type": "cell-based"}, "[14]": {"biological_target": "T2, Caspase-3/Caspase-7 (Homo sapiens, UniProt P42574+P55210)", "T2 sequence (P42574 whole entry)": "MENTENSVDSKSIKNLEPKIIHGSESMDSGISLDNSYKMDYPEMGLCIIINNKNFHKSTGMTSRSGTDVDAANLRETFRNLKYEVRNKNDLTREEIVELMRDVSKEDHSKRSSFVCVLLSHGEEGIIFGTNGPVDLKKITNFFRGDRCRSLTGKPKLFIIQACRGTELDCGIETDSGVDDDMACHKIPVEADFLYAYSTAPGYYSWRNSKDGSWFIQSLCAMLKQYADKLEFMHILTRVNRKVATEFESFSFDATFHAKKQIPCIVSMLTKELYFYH", "T2 sequence (P55210 whole entry)": "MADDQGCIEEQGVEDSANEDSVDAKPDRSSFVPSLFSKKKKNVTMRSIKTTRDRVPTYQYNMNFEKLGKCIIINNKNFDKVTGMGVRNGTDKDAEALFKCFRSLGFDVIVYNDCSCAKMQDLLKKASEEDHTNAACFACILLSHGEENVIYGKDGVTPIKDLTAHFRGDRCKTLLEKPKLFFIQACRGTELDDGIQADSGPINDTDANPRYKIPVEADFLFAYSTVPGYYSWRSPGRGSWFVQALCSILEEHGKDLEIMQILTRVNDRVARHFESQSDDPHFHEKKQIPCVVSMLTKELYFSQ", "assay": "Activation of caspase 3/7 in human 22Rv1 cells by Caspase-Glo reagent based analysis", "type": "cell-based"}, "[15]": {"tested_on": "MDA-MB-468", "assay": "Antiproliferative activity against human MDA-MB-468 cells", "type": "functional, cell-based"}, "[16]": {"tested_on": "MDA-MB-468", "assay": "Antitumor activity against human MDA-MB-468 cells xenografted in mouse assessed as tumor growth inhibition at 5 mg/kg, iv", "type": "functional", "conditions": "read-out: TGI"}, "[17]": {"biological_target": "T1, Bromodomain-containing protein 4", "assay": "Induction of BRD4 (unknown origin) degradation at 1 uM relative to control"}, "[18]": {"biological_target": "T1, Bromodomain-containing protein 4", "assay": "Induction of BRD4 degradation in human HD-MB03 cells measured after 12 hrs", "type": "cell-based"}, "[19]": {"biological_target": "T1, Bromodomain-containing protein 4", "assay": "Induction of BRD4 degradation in human HD-MB03 cells at 100 nM measured at 12 hrs relative to control", "type": "cell-based"}, "[20]": {"tested_on": "MV4-11", "assay": "Cytotoxicity against human MV4-11 cells", "type": "functional, cell-based"}, "[21]": {"tested_on": "MV4-11", "assay": "Cytotoxicity against human MV4-11 cells measured after 96 hrs", "type": "functional, cell-based", "conditions": "MV4-11, 96 h"}, "[22]": {"tested_on": "SUD4", "assay": "Antiproliferative activity against human SU-DHL-4 cells assessed as reduction in cell viability measured after 48 hrs by MTT assay", "type": "functional"}}, "data": [{"smiles": "Cc1c(C(=O)NCCCCCNc2cccc3c2C(=O)N(C2CCC(=O)NC2=O)C3=O)sc2c1C(c1ccc(Cl)cc1)=N[C@@H](CC(=O)OC(C)(C)C)c1nnc(C)n1-2", "note": "(stereo partly specified)", "values": [{"measurement": "DC50", "setting": "[1]", "result": 5, "unit": "nM"}]}, {"smiles": "COC(=O)C[C@H]1[C@]2(C)C3=C(C)[C@H](c4ccoc4-c4ccc(C(=O)NCCCNC(=O)C[C@@H]5N=C(c6ccc(Cl)cc6)c6c(sc(C)c6C)-n6c(C)nnc65)cc4)C[C@H]3O[C@@H]2[C@@H]2OC(=O)[C@]3(C)C=CC(=O)[C@@]1(C)[C@@H]23", "values": [{"measurement": "IC50", "setting": "[2]", "result": 240, "unit": "nM"}]}, {"smiles": "Cc1sc2c(c1C)C(c1ccc(Cl)cc1)=N[C@@H](CC(=O)NCCOCCOCCN1CCOc3cc(N(CCC#N)C(=O)CCl)ccc31)c1nnc(C)n1-2", "values": [{"measurement": "DC50", "setting": "[1]", "result": 1100, "unit": "nM"}, {"measurement": "Emax", "setting": "[3]", "result": 85, "unit": "%"}]}, {"smiles": "CCS(=O)(=O)Nc1ccc(Oc2ccc(F)cc2F)c(-c2cn(C)c(=O)c3[nH]c(C(=O)NCc4cn(CCOCC(=O)Nc5cccc6c5CN(C5CCC(=O)NC5=O)C6=O)nn4)cc23)c1", "note": "(stereo unspecified)", "values": [{"measurement": "IC50", "setting": "[4]", "result": 170, "unit": "nM"}]}, {"smiles": "COc1cc(/N=N\\c2cccc3c2CN(C2CCC(=O)NC2=O)C3=O)cc(OC)c1OCC(=O)NCCCCNC(=O)C[C@@H]1N=C(c2ccc(Cl)cc2)c2c(sc(C)c2C)-n2c(C)nnc21", "note": "(stereo partly specified)", "values": [{"measurement": "half-life", "setting": "[5]", "result": 528, "unit": "min"}]}, {"smiles": "COc1cc(CN(CCCCNC(=O)COc2cccc3c2C(=O)N(C2CCC(=O)NC2=O)C3=O)C(=O)C[C@@H]2N=C(c3ccc(Cl)cc3)c3c(sc(C)c3C)-n3c(C)nnc32)c([N+](=O)[O-])cc1OC", "note": "(stereo partly specified)", "values": [{"measurement": "IC50", "setting": "[6]", "result": 7.6, "unit": "µM"}, {"measurement": "GI50", "setting": "[7]", "result": 400, "unit": "nM"}, {"measurement": "GI50", "setting": "[8]", "result": 340, "unit": "nM"}]}, {"smiles": "Cc1sc2c(c1C)C(c1ccc(Cl)cc1)=N[C@@H](CC(=O)NCCCCCNc1cccc3c1CN(C1CCC(=O)NC1=O)C3=O)c1nnc(C)n1-2", "note": "(stereo partly specified)", "values": [{"measurement": "DC50", "setting": "[9]", "result": "< 0.5", "unit": "nM"}, {"measurement": "IC50", "setting": "[10]", "result": 6.7, "unit": "nM"}, {"measurement": "IC50", "setting": "[11]", "result": 0.9, "unit": "nM"}, {"measurement": "IC50", "setting": "[12]", "result": 125, "unit": "nM"}]}, {"smiles": "Cc1sc2c(c1C)C(c1ccc(Cl)cc1)=N[C@@H](CC(=O)NCCOCCNC(=O)CN1CCOc3cc(N(CCC#N)C(=O)CCl)ccc31)c1nnc(C)n1-2", "values": [{"measurement": "DC50", "setting": "[1]", "result": 820, "unit": "nM"}, {"measurement": "Emax", "setting": "[3]", "result": 81, "unit": "%"}]}, {"smiles": "Cc1sc2c(c1C)C(c1ccc(Cl)cc1)=N[C@@H](CC(=O)NCCCCOc1ccc(Oc3ccc(N(Cc4ccccc4)C(=O)CCl)cc3)cc1)c1nnc(C)n1-2", "values": [{"measurement": "Activity", "setting": "[13]", "result": 30, "unit": "%"}]}, {"smiles": "Cc1ncsc1-c1ccc(CNC(=O)[C@@H]2C[C@@H](O)CN2C(=O)[C@@H](NC(=O)COCC(C)(COCCOCCOCCNC(=O)C[C@@H]2N=C(c3ccc(Cl)cc3)c3c(sc(C)c3C)-n3c(C)nnc32)COCCOCCOCCNC(=O)C[C@@H]2N=C(c3ccc(Cl)cc3)c3c(sc(C)c3C)-n3c(C)nnc32)C(C)(C)C)cc1", "values": [{"measurement": "EC50", "setting": "[14]", "result": 2, "unit": "nM"}]}, {"smiles": "CCn1nc(C2CC2)cc1Nc1nc(C(=O)NCCCOCCOCCOCCCNc2cccc3c2C(=O)N(C2CCC(=O)NC2=O)C3=O)nc2[nH]c3cc(-c4c(C)noc4C)c(OC)cc3c12", "note": "(stereo unspecified)", "values": [{"measurement": "IC50", "setting": "[15]", "result": "< 10", "unit": "nM"}, {"measurement": "inhibition in vivo at 5 mg/kg", "setting": "[16]", "result": 85, "unit": "%"}, {"measurement": "IC50", "setting": "[6]", "result": 0.022, "unit": "µM"}, {"measurement": "Emax", "setting": "[17]", "result": 93, "unit": "%"}, {"measurement": "GI50", "setting": "[7]", "result": 400, "unit": "nM"}, {"measurement": "GI50", "setting": "[8]", "result": 340, "unit": "nM"}, {"measurement": "DC50", "setting": "[9]", "result": 5, "unit": "nM"}, {"measurement": "DC50", "setting": "[18]", "result": 230, "unit": "nM"}, {"measurement": "Emax", "setting": "[19]", "result": 63, "unit": "%"}, {"measurement": "IC50", "setting": "[20]", "result": 1240, "unit": "nM"}, {"measurement": "IC50", "setting": "[21]", "result": 6, "unit": "nM"}]}, {"smiles": "Cc1sc2c(c1C)C(c1ccc(Cl)cc1)=N[C@@H](CC(=O)OC(C)(C)C)c1nnc(C)n1-2", "values": [{"measurement": "GC50", "setting": "[22]", "result": 3.12, "unit": "µM"}]}, {"smiles": "Cc1sc2c(c1C)C(c1ccc(Cl)cc1)=N[C@@H](CC(=O)NCCOCCOCCOCCN1CCOc3cc(N(CCC#N)C(=O)CCl)ccc31)c1nnc(C)n1-2", "values": [{"measurement": "DC50", "setting": "[1]", "result": 3600, "unit": "nM"}, {"measurement": "Emax", "setting": "[3]", "result": 60, "unit": "%"}]}]}
